In one assay the test system is HIF-2α. Kind of assay: Time course of HIF-2α inhibition in xenograft tumours (western blot). It is filed as in vivo, nude mouse. To be noted: single dose; same time period. On the technique in general: Immunoblotting shows a protein as a band on a membrane.
The subject of another assay is HIF-1α. In words: HIF-1α protein levels after CRLX-101 alone or combined with antiangiogenic drugs in A2780 ovarian tumour model. The conditions noted are these: for HIF-1Q % of Control mean + SD: CRLX-101 5 mg/kg QW × 2, n=3. It is filed as in vivo, athymic nude mice.
A further assay concerns OVCAR3. In words: MTS viability assay, CRLX-101 alone and with Olaparib, OVCAR3. The class given is cell-based. The conditions noted are these: Homo sapiens, OVCAR-3, 72 hours, Olaparib alone. The procedure:
(§1) The optimal seeding density for each cell line (DU145, Capan-1, Hs 766T, PANC-1, NUGC4, HEY, OVCAR3, OAW28 and NCI-H510A) will be determined prior to running the assay. Cells will be seeded in 50 μL media (in triplicate for each condition). Three 96 well flat bottom tissue culture plates will be required per cell line (See appendix I). Cells will be allowed to adhere overnight at 37° C., 5% CO2, 20% O2 before compound is added.
(§2) Day 5: Analysis of Proliferation • Remove plates from the incubator and perform a Cell Titre 96 Aqueous One Solution Cell Proliferation Assay (Promega #G3582) according to the manufacturers protocol. • Record absorbance at 490 nm using colorimetric plate reader.

For the next assay, the system named is DU145. In words: MTS viability assay, CRLX-101 alone and with Olaparib, DU145. It is filed as cell-based. To be noted: Homo sapiens, DU-145, 72 hours, Olaparib alone. The procedure:
as §1, §2
(Formazan colour is commonly taken as a measure of viable cells.)

The test system of the next assay is NCI-H510A. Kind of assay: MTS viability assay, CRLX-101 alone and with Olaparib, NCI-H510A. It is filed as cell-based. The conditions noted are these: Homo sapiens, 72 hours, Olaparib alone, read-out: IC50 relative. The procedure: as §1, §2
The subject of a further assay is PANC-1. In words: MTS viability assay, CRLX-101 alone and with Olaparib, PANC-1. The class given is cell-based. The conditions noted are these: Homo sapiens, 72 hours, Olaparib alone. The procedure: as §1, §2
A further assay has as its system OAW28. In words: MTS viability assay, CRLX-101 alone and with Olaparib, OAW28. The conditions noted are these: Homo sapiens, OAW-28, 72 hours, Olaparib alone, read-out: IC50 relative. The class given is cell-based. The procedure: as §1, §2
For a further assay, the system named is Hs 766T. In words: MTS viability assay, CRLX-101 alone and with Olaparib, Hs 766T. The class given is cell-based. The conditions noted are these: Hs766T, 72 hours, Olaparib alone, read-out: IC50 relative. Here is the method:
as §1, §2

Assay [1] concerns Capan-1. Kind of assay: MTS viability assay, CRLX-101 alone and with Olaparib, Capan-1 (schedule 1). It is filed as cell-based. The conditions noted are these: Homo sapiens, 72 hours, Olaparib alone. The procedure:
as §1, §2

For assay [2], the system named is NCI-H417a small-cell lung cancer tumour. It is filed as in vivo. To be noted: wild type BRCA1 and BRCA2.
The test system of a further assay is NUGC4. Kind of assay: MTS viability assay, CRLX-101 alone and with Olaparib, NUGC4. To be noted: Homo sapiens, NUGC-4, 72 hours, Olaparib alone, read-out: IC50 relative. The class given is cell-based. Here is the method: as §1, §2
The test system of assay [3] is Capan-1. Kind of assay: MTS viability assay, CRLX-101 alone and with Olaparib, Capan-1 (schedule 2). The class given is cell-based. The conditions noted are these: Homo sapiens. The procedure:
as §1, §2

In assay [4] the test system is SKOV-3 human ovarian xenograft. To be noted: CRLX-101 9 mg/kg and/or Paclitaxel 30 mg/kg, QW × 3 IV. The text has this: Body weight curves are means relative to the initial body weight, with bars indicating standard deviation. Survival is indicated as the percentage of animals remaining on study because mice bearing tumours that reached a predetermined cut off size (1500 mm3) were removed from the experiment.

The subject of a further assay is SUM159 tumours. Kind of assay: Tumour growth and tumour-initiating capacity in orthotopic SUM159 triple-negative breast cancer model. To be noted: pre-treatment for 2 weeks. The class given is in vivo, mice. The source says: Such stimulation of CSCs could increase drug resistance and metastasis, and may be further enhanced by treatment with antiangiogenic drugs, which can increase tumour hypoxia by reducing blood flow to tumours. Inhibition of HIF-1α might therefore be beneficial to patients by reducing CSCs in tumours. […] Previously published studies have shown that Bevacizumab increases the CSC population mediated primarily by hypoxia induced up-regulation of HIF-1α. […] At the end of these 2 weeks, tumours were extracted and 100 tumour cells were implanted orthotopically into new, untreated mice.
Mice were dosed for two weeks at the dose level and frequency indicated in the legend. Tumour growth curves represent mean tumour volume and error bars represent standard deviation.

Assay [5] relates to carbonic anhydrase 9 (CA9). In words: CA9 immunostaining in HT-29 colorectal xenograft tumours. To be noted: 7 days after a single IV treatment; CRLX-101 5 mg/kg, CPT 0.5 mg/kg. It is filed as in vivo, nude mouse.
Text: Tumours were harvested 7 days after treatment and immunostained with anti-CA9 antibody. Scale bar=50 μm.
Setting [6] is: Mus musculus, A2780, read-out: HIF-1Q % of Control mean + SD.

Read-outs that look alike come from different tables or passages of the source.

Experimental for HIF-2α: Tumours were flash-frozen and HIF-1α or HIF-2α protein levels were measured via western blot analysis, quantified using infrared fluorescence detection, normalised to actin levels and calculated as a percentage of HIF protein levels in saline-treated mice.

In the case of `CC[C@@]1(O)C(=O)OCc2c1cc1n(c2=O)Cc2cc3c(CN(C)C)c(O)ccc3nc2-1` [Topotecan], the “Inhibition of HIF-2α, in words” value in the assay with HIF-2α is recorded as “unable to significantly inhibit”.
In the case of `Cc1ccc(Nc2nccc(N(C)c3ccc4c(C)n(C)nc4c3)n2)cc1S(N)(=O)=O` [Pazopanib], the HIF-1α protein level (% of control) at 150 mg/kg in the assay on HIF-1α (setting [6]) is 226 ± 127%.
By IC50 is commonly meant the concentration that gives 50% inhibition. Regarding `O=C(c1cc(Cc2n[nH]c(=O)c3ccccc23)ccc1F)N1CCN(C(=O)C2CC2)CC1` [Olaparib, 4-[3-(4-cyclopropanecarbonyl-piperazine-1-carbonyl)-4-fluoro-benzyl]-2H-phthalazin-1-one], the IC50 in the assay with OVCAR3 (read-out: IC50 Absolute) is 43.4 µM; in the assay on OVCAR3 (read-out: IC50 relative), 3.03 µM; with DU145 (read-out: IC50 Absolute) it was 93.1 µM; in the assay with DU145 (read-out: IC50 relative) it was 11.6 µM; in the assay with NCI-H510A, 2.66 µM; with PANC-1 (read-out: IC50 Absolute), 79.2 µM. In addition, the concentration for half-maximal inhibition (IC50) in the assay on PANC-1 (read-out: IC50 relative) is 9.26 µM; in the assay with OAW28, roughly 8.88 µM; in the assay on Hs 766T, 14.1 µM; in the assay on Capan-1 [1] (read-out: IC50 Absolute), 40.1 µM; with Capan-1 [1] (read-out: IC50 relative), 5.71 µM; in the assay on NUGC4 it was roughly 11.5 µM. In addition, the IC50 with Capan-1 [3] (CAPAN-1, read-out: IC50 relative) worked out at 0.00546 µM; with Capan-1 [3] (Capan-1 (schedule 2), Olaparib alone, read-out: IC50 Absolute), 488 µM. For the same compound, the “Response of the model to monotherapy” value in assay [2] was “relatively non-responsive”.
For Aflibercept: antiangiogenic drug, the “HIF-1Q % of Control mean + SD” value in the assay on HIF-1α (Aflibercept study, Aflibercept 25 mg/kg Days 1, 4, 8) amounted to 235 ± 80%.
As to `CC(=O)O[C@H]1C(=O)[C@@]2(C)[C@H]([C@H](OC(=O)c3ccccc3)[C@]3(O)C[C@H](OC(=O)[C@H](O)[C@@H](NC(=O)c4ccccc4)c4ccccc4)C(C)=C1C3(C)C)[C@]1(OC(C)=O)CO[C@@H]1C[C@@H]2O` [Paclitaxel], in assay [4] (N=10), the “CR (complete regressions)” value came to 1, the “PR (partial regressions)” value turned out to be 0 and the “TFS (tumour-free survivors)” value was found to be 1. Besides, the “Median TTE” value in assay [4] (endpoint 1500 mm3, N=10) was determined as 42.8 days. Further, the TGD in [4] (vs control group) is on record as 18%.
For the compound “Bevacizumab: antiangiogenic drug, anti-VEGF antibody”, in the assay with SUM159 tumours, the “Tumour-initiating capacity of 100 re-implanted tumour cells” value is recorded as “enhanced tumour-initiating capacity compared to control”. Besides, the “HIF-1Q % of Control mean + SD” value in the assay with HIF-1α (Bevacizumab study, Bevacizumab 5 mg/kg Days 1, 4, 8) stood at 127 ± 18%.
For the compound `CC[C@@]1(O)C(=O)OCc2c1cc1n(c2=O)Cc2cc3ccccc3nc2-1` [CPT, 20(S)-Camptothecin], the “Inhibition of CA9 in tumours” value in assay [5] was “not”.
Take `CNC(=O)c1cc(Oc2ccc(NC(=O)Nc3ccc(Cl)c(C(F)(F)F)c3)c(F)c2)ccn1` [Regorafenib]: the HIF-1α protein level (% of control) at 50 mg/kg in the assay with HIF-1α (setting [6]) came out at 171 ± 4%.

(Values after US20230285576A1, “TREATMENT OF CANCER USING A CYCLODEXTRIN-CONTAINING POLYMER-TOPOISOMERASE INHIBITOR CONJUGATE AND A PARP INHIBITOR” (ELLIPSES PHARMA LTD, priority 2020, published 2023).)
